The text below walks through data of article PMC5259778, “Candidate pheromone receptors of codling moth Cydia pomonella respond to pheromones and kairomones” (Scientific Reports, 2017).

The test system of this assay is CpomOrco + OR complexes. Nature of the assay: Calcium imaging of HEK293T cells expressing heteromeric CpomOrco + OR complexes. Type of assay: cell-based, Cydia pomonella. The following applies: heteromeric complexes; peak amplitudes normalized to response at 1000 μM agonist; read-out: [A]1/2 half-effective concentration of agonist, calcium response. On the procedure: HEK293T cells were grown in HEK cell media [Dulbecco’s modified Eagle’s medium containing 10% fetal bovine serum (MP Biomedicals, Solon, OH, USA), 2.0 mM L-glutamine, and 100 μg/mL Penicillin/Streptomycin (Invitrogen)] at 37 °C and 5% CO2. To test transient expression of CpomORs for calcium imaging or patch-clamp recording experiments, 35-mm petri dishes containing semi-confluent HEK293T cells were transiently transfected. To transfect cells with CpomOrco, we used 1.0 μg of pcDNA5/TO/CpomOrco DNA. In order to promote expression of the OR[51], we used double aliquots for pcDNA5/TO/CpomOR DNAs (2.0 μg), combined with 1.0 μg of pcDNA5/TO/CpomOrco for co-transfections (CpomOrco + ORs). To report expression for calcium imaging experiments, 1.0 μg of a separate plasmid DNA [pEBFP2-Nuc, a gift from Robert Campbell (Addgene plasmid # 14893[52])] carrying the coding sequence for a blue fluorescent protein (BFP) was used. In patch-clamp recordings, 1.0 μg of a separate plasmid DNA (pXOOM, Clontech) carrying the coding sequence for a green fluorescent protein (GFP) was used to report expression. In order to report candidate OR-expressing cells, expression of both fluorescent reporter genes was under the regulation of the same promoter for CpomOR genes (CMV). Transfection DNAs were dissolved in 100 μL sterile DMEM, mixed with 3.0 μL Calfectin (SignaGen, Rockville, MD, USA) following the recommended protocol. To estimate transfection efficiency, a parallel transfection was conducted using the positive control vector pcDNA5/TO/LACZ (Invitrogen) and staining with 0.1% XGal[53]. […]
Fluorescence imaging was performed using Imaging Workbench 6 software (INDEC BioSystems, Santa Clara, CA, USA). Each cell was assigned a region of interest (ROI) and changes in fluorescence intensity within each ROI were measured and expressed as the fractional change in fluorescence intensity (dF) or in some cases as dF/F0 where F0 is the basal fluorescence level before agonist application. […] Continuous traces of multiple responses were compensated for slow drift of the baseline fluorescence when necessary. […]

`CCn1c(SCC(=O)Nc2ccc(C(C)C)cc2)nnc1-c1ccncc1` [VUAA3, acetamide,2-[[4-ethyl-5-(4-pyridinyl)-4H-1,2,4-triazol-3-yl]thio]-N-[4-(1-methylethyl)phenyl]-]: the EC50 is ~140 µM.
